Source: patent US7576222B2, “Alkynyl-containing tryptophan derivative inhibitors of TACE/matrix metalloproteinase” (priority 2004, dated 2009)

molecular target: T1, catalytic domain of the recombinant TACE protein (Homo sapiens, UniProt P78536); test: TACE FRET assay using TACE cat; type: biochemical; conditions: not given
T1 construct: The catalytic domain of the recombinant TACE protein was expressed and purified; made in house
Outline: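 Enzyme (1 ug/ml) pretreated with inhibitor for 10 min at room temperature in 50 mM Tris-HCl pH 7.4, 25 mM NaCl, 4% glycerol, 0.005% Brij 35, then started with FRET peptide Abz-[sequence]-Dpa (2 mM stock). Initial rate taken from fluorescence slope; IC50 fitted with floated Hill slope and background.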

T1 sequence (P78536 223-474 limits assumed): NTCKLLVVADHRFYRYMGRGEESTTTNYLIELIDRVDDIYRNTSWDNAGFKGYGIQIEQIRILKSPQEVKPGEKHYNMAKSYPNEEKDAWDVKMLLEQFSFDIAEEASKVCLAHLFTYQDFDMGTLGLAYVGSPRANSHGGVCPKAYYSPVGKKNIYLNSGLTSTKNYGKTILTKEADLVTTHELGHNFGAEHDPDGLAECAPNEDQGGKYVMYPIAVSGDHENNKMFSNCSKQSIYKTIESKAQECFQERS

Compound	IC50 [nM]
CC#CCOc1ccc(S(=O)(=O)N[C@@H](Cc2cn(CCCCC)c3ccc(OC)cc23)C(=O)O)cc1 [Example 68, N-{[4-(but-2-ynyloxy)phenyl]sulfonyl}-5-methoxy-1-pentyltryptophan]	1320
CC#CCOc1ccc(S(=O)(=O)N[C@@H](Cc2c(C)n(Cc3ccccc3)c3ccc(OC)cc23)C(=O)O)cc1 [Example 185, 1-benzyl-N-{[4-(but-2-ynyloxy)phenyl]sulfonyl}-5-methoxy-2-methyltryptophan]	200
CC#CCOc1ccc(S(=O)(=O)N[C@@H](Cc2c[nH]c3ccc(O)cc23)C(=O)O)cc1 [Example 5, N-{[4-(but-2-ynyloxy)phenyl]sulfonyl}-5-hydroxytryptophan]	1610
CC#CCOc1ccc(S(=O)(=O)N[C@@H](Cc2c(C)n(Cc3ccc(Cl)cc3)c3ccc(OC)cc23)C(=O)O)cc1 [Example 201, N-{[4-(but-2-ynyloxy)phenyl]sulfonyl}-1-(4-chlorobenzyl)-5-methoxy-2-methyltryptophan]	290
CC#CCOc1ccc(S(=O)(=O)N[C@@H](Cc2cn(CC3CCC3)c3ccc(OC)cc23)C(=O)O)cc1 [Example 69, N-{[4-(but-2-ynyloxy)phenyl]sulfonyl}-1-(cyclobutylmethyl)-5-methoxytryptophan]	1190
CC#CCOc1ccc(S(=O)(=O)N[C@@H](Cc2c(C)n(Cc3ccc(C#N)cc3)c3ccc(OC)cc23)C(=O)O)cc1 [Example 205, N-{[4-(but-2-ynyloxy)phenyl]sulfonyl}-1-(4-cyanobenzyl)-5-methoxy-2-methyltryptophan]	470

same assay, conditions: TACE FRET assay, catalytic domain of recombinant TACE; read-out: TACE IC50

Compound	IC50 [nM]
CC#CCOc1ccc(S(=O)(=O)N[C@H](Cc2cn(Cc3ccc(C(F)(F)F)cc3)c3ccccc23)C(=O)O)cc1 [Example 41, N-{[4-(but-2-ynyloxy)phenyl]sulfonyl}-1-[4-(trifluoromethyl)benzyl]-D-tryptophan]	4400
CC#CCOc1ccc(S(=O)(=O)N[C@H](Cc2cn(Cc3ccccc3)c3ccccc23)C(=O)O)cc1 [Example 25, 1-benzyl-N-{[4-(but-2-ynyloxy)phenyl]sulfonyl}-D-tryptophan]	2150

same assay, conditions: read-out: TACE Inhibition (%)

Compound	inhibition at 1 µM [%]
CC#CCOc1ccc(S(=O)(=O)N[C@@H](Cc2cn(Cc3cc(OC)cc(OC)c3)c3ccc(OC)cc23)C(=O)O)cc1 [Example 54, N-{[4-(but-2-ynyloxy)phenyl]sulfonyl}-1-(3,5-dimethoxybenzyl)-5-methoxytryptophan]	38
CC#CCOc1ccc(S(=O)(=O)N[C@@H](Cc2cn(Cc3ccc(F)cc3)c3ccc(OC)cc23)C(=O)O)cc1 [Example 60, N-{[4-(but-2-ynyloxy)phenyl]sulfonyl}-1-(4-fluorobenzyl)-5-methoxytryptophan]	43.5
CC#CCOc1ccc(S(=O)(=O)N[C@@H](Cc2c(C)n(Cc3ccc(F)cc3)c3ccc(Cl)cc23)C(=O)O)cc1 [Example 95, N-{[4-(but-2-ynyloxy)phenyl]sulfonyl}-5-chloro-1-(4-fluorobenzyl)-2-methyltryptophan]	63.6
CC#CCOc1ccc(S(=O)(=O)N[C@@H](Cc2c(C)n(Cc3ccccc3C#N)c3ccccc23)C(=O)O)cc1 [Example 158, N-{[4-(but-2-ynyloxy)phenyl]sulfonyl}-1-(2-cyanobenzyl)-2-methyltryptophan]	72.1
CC#CCOc1ccc(S(=O)(=O)N[C@@H](Cc2cn(Cc3ccc(C(F)(F)F)cc3)c3ccc(OC)cc23)C(=O)O)cc1 [Example 57, N-{[4-(but-2-ynyloxy)phenyl]sulfonyl}-5-methoxy-1-[4-(trifluoromethyl)benzyl]tryptophan]	32.1
CC#CCOc1ccc(S(=O)(=O)N[C@@H](Cc2c(C)n(Cc3ccc(C(=O)O)cc3)c3ccc(OC)cc23)C(=O)O)cc1 [Example 207, N-{[4-(but-2-ynyloxy)phenyl]sulfonyl}-1-(4-carboxybenzyl)-5-methoxy-2-methyltryptophan]	62.1
CC#CCOc1ccc(S(=O)(=O)N[C@@H](Cc2c(C)n(Cc3cccc(F)c3)c3ccccc23)C(=O)O)cc1 [Example 153, N-{[4-(but-2-ynyloxy)phenyl]sulfonyl}-1-(3-fluorobenzyl)-2-methyltryptophan]	55.9
CC#CCOc1ccc(S(=O)(=O)N[C@@H](Cc2cn(CC(C)C)c3ccc(Cl)cc23)C(=O)O)cc1 [Example 85, N-{[4-(but-2-ynyloxy)phenyl]sulfonyl}-5-chloro-1-isobutyltryptophan]	32.9
CC#CCOc1ccc(S(=O)(=O)N[C@@H](Cc2c(C)n(Cc3ccccc3OC)c3ccc(OC)cc23)C(=O)O)cc1 [Example 189, N-{[4-(but-2-ynyloxy)phenyl]sulfonyl}-5-methoxy-1-(2-methoxybenzyl)-2-methyltryptophan]	75.6
CC#CCOc1ccc(S(=O)(=O)N[C@@H](Cc2c(C)n(Cc3ccccc3OC)c3ccc(Cl)cc23)C(=O)O)cc1 [Example 89, N-{[4-(but-2-ynyloxy)phenyl]sulfonyl}-5-chloro-1-(2-methoxybenzyl)-2-methyltryptophan]	53.6
CC#CCOc1ccc(S(=O)(=O)N[C@@H](Cc2c(C)n(CC3CCCCC3)c3ccc(Cl)cc23)C(=O)O)cc1 [Example 102, N-{[4-(but-2-ynyloxy)phenyl]sulfonyl}-5-chloro-1-(cyclohexylmethyl)-2-methyltryptophan]	56.9
CC#CCOc1ccc(S(=O)(=O)N[C@@H](Cc2cn(Cc3ccc(C)cc3)c3ccc(C#N)cc23)C(=O)O)cc1 [Example 136, N-{[4-(but-2-ynyloxy)phenyl]sulfonyl}-5-cyano-1-(4-methylbenzyl)tryptophan]	57.8
CC#CCOc1ccc(S(=O)(=O)N[C@@H](Cc2cn(Cc3cccc(C#N)c3)c3ccc(C(=O)O)cc23)C(=O)O)cc1 [Example 122, N-{[4-(but-2-ynyloxy)phenyl]sulfonyl}-5-carboxy-1-(3-cyanobenzyl)tryptophan]	-0.34
CC#CCOc1ccc(S(=O)(=O)N[C@@H](Cc2c(C)n(Cc3cccc(OC(F)(F)F)c3)c3ccc(OC)cc23)C(=O)O)cc1 [Example 194, N-{[4-(but-2-ynyloxy)phenyl]sulfonyl}-5-methoxy-2-methyl-1-[3-(trifluoromethoxy)benzyl]tryptophan]	80.8
CC#CCOc1ccc(S(=O)(=O)N[C@@H](Cc2c(C)n(Cc3ccc(OC(F)(F)F)cc3)c3ccccc23)C(=O)O)cc1 [Example 151, N-{[4-(but-2-ynyloxy)phenyl]sulfonyl}-2-methyl-1-[4-(trifluoromethoxy)benzyl]tryptophan]	24.3
CC#CCOc1ccc(S(=O)(=O)N[C@@H](Cc2c(C)n(Cc3ccccc3C#N)c3ccc(OC)cc23)C(=O)O)cc1 [Example 203, N-{[4-(but-2-ynyloxy)phenyl]sulfonyl}-1-(2-cyanobenzyl)-5-methoxy-2-methyltryptophan]	56.8
CC#CCOc1ccc(S(=O)(=O)N[C@@H](Cc2cn(Cc3ccc(OC(F)(F)F)cc3)c3ccc(C#N)cc23)C(=O)O)cc1 [Example 140, N-{[4-(but-2-ynyloxy)phenyl]sulfonyl}-5-cyano-1-[4-(trifluoromethoxy)benzyl]tryptophan]	16
CC#CCOc1ccc(S(=O)(=O)N[C@@H](Cc2c(C)n(Cc3ccc(OC)cc3)c3ccccc23)C(=O)O)cc1 [Example 148, N-{[4-(but-2-ynyloxy)phenyl]sulfonyl}-1-(4-methoxybenzyl)-2-methyltryptophan]	44.1
